{"source": "patent US10738001B2", "about": "“Hydrofluoroolefins and methods of using same” (priority 2015, dated 2020)", "key": {"rats": {"system": "rats", "test": "toxicity screening study in rats, 4 Hr Inhalation LC50"}, "[1]": {"test": "Log KOW (octanol/water partition coefficient) by HPLC, OECD Method 117", "assay_type": "physicochemical", "protocol": "(§1) In these Examples, Log KOWs, (octanol/water partition coefficients), were determined by HPLC using the method described in OECD Method 117. Atmospheric lifetimes were experimentally determined using a relative rate method to determine the hydroxyl radical rate constant."}, "[2]": {"test": "Atmospheric lifetime by relative rate method (hydroxyl radical rate constant)", "assay_type": "physicochemical", "protocol": "as §1"}}, "note": "Read-outs that look alike come from different tables or passages of the source.", "data": [{"compound": "4-(E&Z)-(1,2-difluorovinyl)-2,2,3,3,5,5,6,6-octafluoromorpholine [Example 4]", "values": [{"measurement": "4 Hr Inhalation LC50", "setting": "rats", "value": "> 10,000 ppm"}, {"measurement": "Log KOW (octanol/water partition coefficient measured by HPLC)", "setting": "[1]", "value": 4.31}, {"measurement": "atmospheric lifetime", "setting": "[2]", "value": 0.078, "unit": "years"}]}, {"compound": "FC(=CC(F)(F)F)N(C(F)(F)F)C(F)(F)C(F)(F)F", "note": "[Example 1, (E&Z)-1,3,3,3-tetrafluoro-N-(1,1,2,2,2-pentafluoroethyl)-N-(trifluoromethyl)prop-1-en-1-amine]", "values": [{"measurement": "Log KOW (octanol/water partition coefficient measured by HPLC)", "setting": "[1]; HPLC, OECD Method 117, average value for the E/Z product mixtures of Examples 1-3", "value": 4.57}]}, {"compound": "FC(=CC(F)(F)F)N1C(F)(F)C(F)(F)OC(F)(F)C1(F)F", "note": "[Example 2]", "values": [{"measurement": "4 Hr Inhalation LC50", "setting": "rats", "value": "> 10,390 ppm"}, {"measurement": "Log KOW (octanol/water partition coefficient measured by HPLC)", "setting": "[1]", "value": 4.80}, {"measurement": "atmospheric lifetime", "setting": "[2]", "value": 0.89, "unit": "years"}]}, {"compound": "F/C(=C\\C(F)(F)F)N(C(F)(F)F)C(F)(F)F", "note": "[Example 3, (E&Z)-1,3,3,3-tetrafluoro-N,N-bis(trifluoromethyl)prop-1-en-1-amine]", "values": [{"measurement": "chromatographic logP", "setting": "[1]", "value": 4.12}, {"measurement": "atmospheric lifetime", "setting": "[2]", "value": 1.3, "unit": "years"}]}, {"compound": "C=C(F)N1C(F)(F)C(F)(F)OC(F)(F)C1(F)F", "note": "[Example 6, 2,2,3,3,5,5,6,6-octafluoro-4-(1-fluorovinyl)morpholine]", "values": [{"measurement": "4 Hr Inhalation LC50", "setting": "rats", "value": "> 10,000 ppm"}, {"measurement": "chromatographic logP", "setting": "[1]; octanol/water, HPLC, OECD Method 117, average value for the E/Z product mixtures of Examples 1-3, read-out: Log KOW (octanol/water partition coefficient measured by HPLC)", "value": 4.33}, {"measurement": "atmospheric lifetime", "setting": "[2]", "value": 0.095, "unit": "years"}]}, {"compound": "FC=C(F)N(C(F)(F)C(F)(F)F)C(F)(F)C(F)(F)C(F)(F)F", "note": "[Example 8, N-(E&Z)-(1,2-difluorovinyl)-1,1,2,2,3,3,3-heptafluoro-N-(perfluoroethyl)propan-1-amine]", "values": [{"measurement": "Log KOW (octanol/water partition coefficient measured by HPLC)", "setting": "[1]", "value": 4.97}]}]}
